Experiments:
OVCAR3 cells = assay: Detection of cell proliferation activity by CCK8 method (OVCAR3); assay type: cell-based
Procedure, shortened: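 OVCAR3 tumor cells in log-phase growth were trypsinized, counted and plated at 180 μL per well in 96-well plates, with PBS in the outer wells. The following day, compounds were added in 9 concentrations (1:5 dilutions starting at 10 μM final) in triplicate alongside DMSO controls. After 96 h, medium was swapped for 100 μL medium containing 10% CCK8. Plates were incubated 2 h at 37° C and read at 450 nm. Background-corrected inhibition relative to DMSO was fitted by non-linear regression in GraphPad Prism 7.0 to obtain IC50.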

HT-29 cells [1] = assay: Detection of cell proliferation activity by CCK8 method (HT-29); assay type: cell-based, human; conditions: CCK8, 96 h
Procedure, shortened: (§1)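 Cells seeded at 1500/well (BT-549, 1640 medium) or 2000/well (HT-29, HCT-116, McCoy's 5A), treated next day with 9-point 1:5 dilutions from 10 μM final, triplicate, for 96 h. CCK8 read at 450 nm after 2 h at 37 °C; inhibition versus DMSO, IC50 by non-linear regression.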

BT-549 cells = assay: Detection of cell proliferation activity by CCK8 method (BT-549); assay type: cell-based; conditions: CCK8, 96 h
Procedure, shortened: as §1

HCT-116 cells [2] = assay: Detection of cell proliferation activity by CCK8 method (HCT-116); assay type: cell-based; conditions: CCK8, 96 h
Procedure, shortened: as §1

KIF18A = KIF18A (Homo sapiens (Human), UniProt Q8NI77); assay: KIF18A enzymatic activity inhibition, ADP-Glo kit; assay type: biochemical; conditions: 4 nM KIF18A, 30 μM ATP
Chain of KIF18A (Q8NI77 1-467): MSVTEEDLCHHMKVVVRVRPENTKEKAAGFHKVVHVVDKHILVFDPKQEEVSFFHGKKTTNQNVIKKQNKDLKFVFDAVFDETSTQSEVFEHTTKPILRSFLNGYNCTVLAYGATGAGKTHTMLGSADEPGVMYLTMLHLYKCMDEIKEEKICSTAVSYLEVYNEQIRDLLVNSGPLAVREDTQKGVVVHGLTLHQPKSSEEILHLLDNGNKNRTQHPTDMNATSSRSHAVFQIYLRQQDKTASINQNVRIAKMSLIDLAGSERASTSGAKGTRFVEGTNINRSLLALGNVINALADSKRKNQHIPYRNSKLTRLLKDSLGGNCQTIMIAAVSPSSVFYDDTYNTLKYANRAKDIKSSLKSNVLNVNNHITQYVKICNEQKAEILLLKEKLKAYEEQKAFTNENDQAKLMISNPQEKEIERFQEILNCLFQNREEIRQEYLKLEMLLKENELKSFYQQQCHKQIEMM
Procedure, shortened: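 KIF18A (1467) at 4 nM was preincubated with compound for 20 min at 37 °C in 15 mM Tris pH 7.5, 10 mM MgCl2, 0.01% Pluronic F-68. The reaction was started with 30 μM ATP and ran 15 min at room temperature.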

HT-29 cells [3] = assay: Mitotic index analysis, pH3 expression in HT-29 cells; assay type: cell-based, human; conditions: 24 h treatment
Procedure, shortened: (§2)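 HCT-116 or HT-29 cells treated 24 h with 9-point 3-fold dilutions from 10 μM, then fixed and immunostained for phospho-histone H3 with DRAQ5 counterstain. Near-infrared fluorescence read at 700/800 nm; pH3 expressed as % of DMSO control and EC50 fitted.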

HCT-116 cells [4] = assay: Mitotic index analysis, pH3 expression in HCT-116 cells; assay type: cell-based; conditions: 24 h treatment
Procedure, shortened: as §2

[5] = molecular target: cytochrome oxidase P450 2D6 (Homo sapiens (Human), UniProt P10635); assay: Inhibition of cytochrome oxidase P450 2D6; assay type: in vitro ADME; conditions: liver microsomes, CYP2D6
Chain of cytochrome oxidase P450 2D6 (P10635 whole entry): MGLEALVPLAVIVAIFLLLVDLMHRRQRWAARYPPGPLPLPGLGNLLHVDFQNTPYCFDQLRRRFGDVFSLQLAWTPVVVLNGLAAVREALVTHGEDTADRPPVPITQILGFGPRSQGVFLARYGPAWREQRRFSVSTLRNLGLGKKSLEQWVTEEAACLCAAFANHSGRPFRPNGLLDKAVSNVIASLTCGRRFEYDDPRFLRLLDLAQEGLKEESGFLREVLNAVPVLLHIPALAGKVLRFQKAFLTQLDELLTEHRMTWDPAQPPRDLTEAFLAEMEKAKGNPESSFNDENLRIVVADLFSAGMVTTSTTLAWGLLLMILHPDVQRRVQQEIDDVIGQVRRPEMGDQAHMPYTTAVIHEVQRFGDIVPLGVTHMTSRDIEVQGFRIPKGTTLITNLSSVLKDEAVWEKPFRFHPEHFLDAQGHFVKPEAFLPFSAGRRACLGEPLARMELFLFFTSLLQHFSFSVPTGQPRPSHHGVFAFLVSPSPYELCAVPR

[6] = molecular target: cytochrome oxidase P450 3A4 (Homo sapiens (Human), UniProt P08684); assay: Inhibition of cytochrome oxidase P450 3A4 (Midazolam); assay type: in vitro ADME; conditions: liver microsomes, CYP3A4, Midazolam
Chain of cytochrome oxidase P450 3A4 (P08684 whole entry): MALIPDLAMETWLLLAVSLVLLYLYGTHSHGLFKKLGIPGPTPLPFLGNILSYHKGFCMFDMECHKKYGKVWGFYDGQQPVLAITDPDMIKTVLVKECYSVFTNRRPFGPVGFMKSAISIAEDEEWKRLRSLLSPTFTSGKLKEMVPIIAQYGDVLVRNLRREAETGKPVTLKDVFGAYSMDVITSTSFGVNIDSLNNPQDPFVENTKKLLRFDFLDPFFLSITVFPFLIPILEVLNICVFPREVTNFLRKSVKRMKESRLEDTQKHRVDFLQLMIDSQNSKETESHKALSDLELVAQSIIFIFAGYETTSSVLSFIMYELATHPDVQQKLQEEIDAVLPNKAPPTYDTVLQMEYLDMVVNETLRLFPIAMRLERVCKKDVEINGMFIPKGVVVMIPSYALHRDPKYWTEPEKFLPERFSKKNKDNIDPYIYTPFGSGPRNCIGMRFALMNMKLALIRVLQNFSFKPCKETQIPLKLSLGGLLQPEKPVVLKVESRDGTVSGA

[7] = Homo sapiens, OVCAR-3, CCK8, 96 h

For `Cc1cc(NC(=O)c2ccc(NS(=O)(=O)CCO)cc2N2CC3CCC(C3)C2)nc(N2CCC(F)(F)CC2)n1` [Compound 3], the IC50 (OVCAR3 cells; [7]) was 145 nM, the IC50 (HT-29 cells [1]; Homo sapiens) was 115 nM and the IC50 (BT-549 cells; Homo sapiens) was 145 nM. The IC50 (HCT-116 cells [2]; Homo sapiens) was > 10000 nM, the IC50 (KIF18A) was 19.8 nM and the EC50 (HT-29 cells [3]; Homo sapiens) was 495 nM. For the same compound, the EC50 (HCT-116 cells [4]; Homo sapiens) was > 10000 nM.

`O=C(Nc1cc2ccccc2c(N2CCC(F)(F)CC2)n1)c1ccc(NS(=O)(=O)CCO)cc1N1CCC2(CC1)CC2` [Compound 6] was tested, and the IC50 (OVCAR3 cells; [7]) was 57 nM, the IC50 (HT-29 cells [1]; Homo sapiens) was 144 nM and the IC50 (BT-549 cells; Homo sapiens) was 146 nM. The IC50 (HCT-116 cells [2]; Homo sapiens) was > 10000 nM, the IC50 (KIF18A) was 95.6 nM and the EC50 (HT-29 cells [3]; Homo sapiens) was 175 nM. For the same compound, the EC50 (HCT-116 cells [4]; Homo sapiens) was > 10000 nM, the IC50 [5] was > 10000 nM and the IC50 [6] was > 10000 nM.

In the case of `O=C(Nc1cn2ccnc2c(N2CCC(F)(F)CC2)n1)c1ccc(NS(=O)(=O)CCO)cc1N1CCC2(CC1)CC2` [Compound 8], the IC50 (OVCAR3 cells; [7]) is reported as 7.2 nM, the IC50 (HT-29 cells [1]; Homo sapiens) is reported as 19 nM and the IC50 (BT-549 cells; Homo sapiens) is reported as 7.2 nM. The IC50 (HCT-116 cells [2]; Homo sapiens) was > 10000 nM, the IC50 (KIF18A) was 21.3 nM and the EC50 (HT-29 cells [3]; Homo sapiens) was 6.4 nM. For the same compound, the EC50 (HCT-116 cells [4]; Homo sapiens) was > 10000 nM, the IC50 [5] was > 10000 nM and the IC50 [6] was > 10000 nM.

In the case of `CS(=O)(=O)Nc1ccc(C(=O)Nc2cn3ccnc3c(N3CCC(F)(F)CC3)n2)c(N2CCC3(CC2)CC3)c1` [Compound 10], the IC50 (HT-29 cells [1]; Homo sapiens) is reported as 61 nM, the IC50 (BT-549 cells; Homo sapiens) is reported as 52 nM and the IC50 (HCT-116 cells [2]; Homo sapiens) is reported as > 10000 nM. The IC50 (KIF18A) was 25.7 nM, the EC50 (HT-29 cells [3]; Homo sapiens) was 183 nM and the EC50 (HCT-116 cells [4]; Homo sapiens) was > 10000 nM.

In the case of `O=C(Nc1cc2c(c(N3CCC(F)(F)CC3)n1)COC2)c1ccc(NS(=O)(=O)CCO)cc1N1CCC2(CC1)CC2` [Compound 14], the IC50 (HT-29 cells [1]; Homo sapiens) is reported as 30 nM, the IC50 (BT-549 cells; Homo sapiens) is reported as 25 nM and the IC50 (HCT-116 cells [2]; Homo sapiens) is reported as > 10000 nM. For the same compound, the IC50 (KIF18A) was 28.7 nM, the EC50 (HT-29 cells [3]; Homo sapiens) was 22 nM and the EC50 (HCT-116 cells [4]; Homo sapiens) was > 10000 nM.

`O=C(Nc1cc2ccsc2c(N2CCC(F)(F)CC2)n1)c1ccc(NS(=O)(=O)CCO)cc1N1CCC2(CC1)CC2` [Compound 15] was tested, and the IC50 (HT-29 cells [1]; Homo sapiens) was 107 nM, the IC50 (BT-549 cells; Homo sapiens) was 86 nM and the IC50 (HCT-116 cells [2]; Homo sapiens) was > 10000 nM. For the same compound, the IC50 (KIF18A) was 126 nM, the EC50 (HT-29 cells [3]; Homo sapiens) was 82 nM and the EC50 (HCT-116 cells [4]; Homo sapiens) was > 10000 nM.

With `O=C(Nc1cn2ccnc2c(N2CCC(F)(F)CC2)n1)c1ccc(NS(=O)(=O)CCO)cc1N1CC2CCC(C2)C1` [Compound 17] the IC50 (HT-29 cells [1]; Homo sapiens) was 27 nM, the IC50 (BT-549 cells; Homo sapiens) was 33 nM and the IC50 (HCT-116 cells [2]; Homo sapiens) was > 10000 nM. For the same compound, the IC50 (KIF18A) was 16.4 nM, the EC50 (HT-29 cells [3]; Homo sapiens) was 57 nM and the EC50 (HCT-116 cells [4]; Homo sapiens) was > 10000 nM.

Work on `CS(=O)(=O)Nc1ccc(C(=O)Nc2cn3ccnc3c(N3CCC(F)(F)CC3)n2)c(N2CC3CCC(C3)C2)c1` [Compound 19] yielded an IC50 (OVCAR3 cells; [7]) of 23.1 nM, an IC50 (HT-29 cells [1]; Homo sapiens) of 44 nM and an IC50 (BT-549 cells; Homo sapiens) of 69.6 nM. For the same compound, the IC50 (HCT-116 cells [2]; Homo sapiens) was > 10000 nM, the EC50 (HT-29 cells [3]; Homo sapiens) was 34 nM and the EC50 (HCT-116 cells [4]; Homo sapiens) was > 10000 nM. For the same compound, the IC50 [5] was > 10000 nM and the IC50 [6] was > 10000 nM.

In the case of `O=C(Nc1cc2cccnc2c(N2CCC(F)(F)CC2)n1)c1ccc(NS(=O)(=O)CCO)cc1N1CCC2(CC1)CC2` [Compound 21], the IC50 (OVCAR3 cells; [7]) is reported as 3.4 nM, the IC50 (HT-29 cells [1]; Homo sapiens) is reported as 5.1 nM and the IC50 (BT-549 cells; Homo sapiens) is reported as 8.2 nM. For the same compound, the IC50 (HCT-116 cells [2]; Homo sapiens) was > 10000 nM, the EC50 (HT-29 cells [3]; Homo sapiens) was 6 nM and the EC50 (HCT-116 cells [4]; Homo sapiens) was > 10000 nM. The IC50 [5] was > 10000 nM and the IC50 [6] was > 10000 nM.

`O=C(Nc1cc2cc[nH]c2c(N2CCC(F)(F)CC2)n1)c1ccc(NS(=O)(=O)CCO)cc1N1CCC2(CC1)CC2` [Compound 22] showed an IC50 (OVCAR3 cells; [7]) of 3.4 nM, an IC50 (HT-29 cells [1]; Homo sapiens) of 20.6 nM and an IC50 (BT-549 cells; Homo sapiens) of 22.1 nM. For the same compound, the IC50 (HCT-116 cells [2]; Homo sapiens) was > 10000 nM, the IC50 (KIF18A) was 26.4 nM and the EC50 (HT-29 cells [3]; Homo sapiens) was 8.9 nM. The EC50 (HCT-116 cells [4]; Homo sapiens) was > 10000 nM.

`O=C(Nc1cn2ncnc2c(N2CCC(F)(F)CC2)n1)c1ccc(NS(=O)(=O)CCO)cc1N1CCC2(CC1)CC2` [Compound 23] gave an IC50 (OVCAR3 cells; [7]) of 5.7 nM, an IC50 (HT-29 cells [1]; Homo sapiens) of 22.5 nM and an IC50 (BT-549 cells; Homo sapiens) of 22.6 nM. For the same compound, the IC50 (HCT-116 cells [2]; Homo sapiens) was > 10000 nM, the IC50 (KIF18A) was 3.6 nM and the EC50 (HT-29 cells [3]; Homo sapiens) was 9.8 nM. For the same compound, the EC50 (HCT-116 cells [4]; Homo sapiens) was > 10000 nM.

`O=C(Nc1cn2cnnc2c(N2CCC(F)(F)CC2)n1)c1ccc(NS(=O)(=O)CCO)cc1N1CCC2(CC1)CC2` [Compound 24] was tested, and the IC50 (OVCAR3 cells; CCK8, 96 h) was 12.3 nM, the IC50 (HT-29 cells [1]) was 142 nM and the IC50 (BT-549 cells) was 52.8 nM. For the same compound, the IC50 (HCT-116 cells [2]) was > 10000 nM, the IC50 (KIF18A) was 3.7 nM and the EC50 (HT-29 cells [3]) was 65.6 nM. For the same compound, the EC50 (HCT-116 cells [4]) was > 10000 nM.

In the case of `O=C(Nc1cn2c(F)cnc2c(N2CCC(F)(F)CC2)n1)c1ccc(NS(=O)(=O)CCO)cc1N1CCC2(CC1)CC2` [Compound 34], the IC50 (OVCAR3 cells; [7]) is reported as 10.6 nM, the IC50 (HT-29 cells [1]; Homo sapiens) is reported as 28.8 nM and the IC50 (BT-549 cells; Homo sapiens) is reported as 33.3 nM. For the same compound, the IC50 (HCT-116 cells [2]; Homo sapiens) was > 10000 nM, the EC50 (HT-29 cells [3]; Homo sapiens) was 14.5 nM and the EC50 (HCT-116 cells [4]; Homo sapiens) was > 10000 nM. For the same compound, the IC50 [5] was > 10000 nM and the IC50 [6] was > 10000 nM.

For `CS(=O)(=O)Nc1ccc(C(=O)Nc2cc3cc[nH]c3c(N3CCC(F)(F)CC3)n2)c(N2CCC3(CC2)CC3)c1` [Compound 47], the IC50 (OVCAR3 cells; [7]) was 8 nM, the IC50 (HT-29 cells [1]; Homo sapiens) was 10.5 nM and the IC50 (BT-549 cells; Homo sapiens) was 18.9 nM. For the same compound, the IC50 (HCT-116 cells [2]; Homo sapiens) was > 10000 nM, the EC50 (HT-29 cells [3]; Homo sapiens) was 6.4 nM and the EC50 (HCT-116 cells [4]; Homo sapiens) was > 10000 nM. The IC50 [5] was 2240 nM and the IC50 [6] was 240 nM.

— patent US20250382298A1, “NITROGEN-CONTAINING COMPOUND AND USE THEREOF” (SUZHOU GENHOUSE BIO CO., LTD., priority 2022, published 2025)
